Measurements as given in ChEMBL document CHEMBL1136555, “Antitumour benzothiazoles. Part 20: 3'-cyano and 3'-alkynyl-substituted 2-(4'-aminophenyl)benzothiazoles as new potent and selective analogues” (Bioorg Med Chem Lett, 2003).
One block for each compound: values may come before it.

How the values were obtained:
MCF7 [1] = test: (§1) Inhibitory activity of compound against breast cancer cell line MCF-7, following 72 hr treatment; format: functional; settings: Homo sapiens, MCF7, 72 h
MDA-MB-468 [2] = test: (§2) Inhibitory activity of compound against breast cancer cell line MDA 468, following 72 hr treatment; format: functional; settings: Homo sapiens, MDA-MB-468, 72 h
MCF7 [3] = test: as §1; format: functional, cell-based; settings: Homo sapiens, MCF7, 72 h
MDA-MB-468 [4] = test: as §2; format: functional, cell-based; settings: Homo sapiens, MDA-MB-468, 72 h
786-0 = test: Compound tested for growth inhibition of renal cancer cell line 786-0; format: functional; settings: Homo sapiens
A498 = test: Compound tested for growth inhibition of renal cancer cell line A498; format: functional; settings: Homo sapiens
A549 = test: Compound tested for growth inhibition of non-small cell lung cancer cell line A549/ATCC; format: functional; settings: Homo sapiens
BT-549 = test: Compound tested for growth inhibition of breast cancer cell line BT-549; format: functional; settings: Homo sapiens
DU-145 = test: Compound tested for growth inhibition of prostate cancer cell line DU-145; format: functional; settings: Homo sapiens
HCT-15 = test: Compound tested for growth inhibition of colon cancer cell line HCT-15; format: functional; settings: Homo sapiens
HT-29 = test: Compound tested for growth inhibition of colon cancer cell line HT-29; format: functional; settings: Homo sapiens
HOP-62 = test: Compound tested for growth inhibition of non-small cell lung cancer cell line HOP-62; format: functional; settings: Homo sapiens
HCT-116 = test: Compound tested for growth inhibition of colon cancer cell line HCT116; format: functional; settings: Homo sapiens
HOP-92 = test: Compound tested for growth inhibition of non-small cell lung cancer cell line HOP-92; format: functional; settings: Homo sapiens
HCC 2998 = test: Compound tested for growth inhibition of colon cancer cell line HCC2998; format: functional; settings: Homo sapiens
Hs-578T = test: Compound tested for growth inhibition of breast cancer cell line HS 578T; format: functional; settings: Homo sapiens
IGROV-1 = test: Compound tested for growth inhibition of ovarian cancer cell line […]; format: functional; settings: Homo sapiens
K562 = test: Compound tested for growth inhibition of leukemia cell line K-562; format: functional; settings: Homo sapiens
KM12 = test: Compound tested for growth inhibition of colon cancer cell line KM12; format: functional; settings: Homo sapiens
M14 = test: Compound tested for growth inhibition of melanoma cell line M14; format: functional; settings: Homo sapiens
LOX IMVI = test: Compound tested for growth inhibition of melanoma cell line LOX IMVI; format: functional; settings: Homo sapiens
MCF7 [5] = test: Compound tested for growth inhibition of breast cancer cell line MCF-7; format: functional; settings: Homo sapiens
MDA-MB-231 = test: Compound tested for growth inhibition of breast cancer cell line MDA-MB-231/ATCC; format: functional; settings: Homo sapiens
MDA-N = test: Compound tested for growth inhibition of breast cancer cell line MDA-N; format: functional; settings: Homo sapiens
MOLT-4 = test: Compound tested for growth inhibition of leukemia cell line MOLT-4; format: functional; settings: Homo sapiens
Malme-3M = test: Compound tested for growth inhibition of melanoma cell line MALME-3M; format: functional; settings: Homo sapiens
NCI-H522 = test: Compound tested for growth inhibition of non-small cell lung cancer cell line NCI-H522; format: functional; settings: Homo sapiens
NCI-H322M = test: Compound tested for growth inhibition of non-small cell lung cancer cell line NCI-H322M; format: functional; settings: Homo sapiens
OVCAR-3 = test: Compound tested for growth inhibition of ovarian cancer cell line OVCAR-3; format: functional; settings: Homo sapiens
NCI-H226 = test: Compound tested for growth inhibition of non-small cell lung cancer cell line NCI-H226; format: functional; settings: Homo sapiens
OVCAR-8 = test: Compound tested for growth inhibition of ovarian cancer cell line OVCAR-8; format: functional; settings: Homo sapiens
NCI-H460 = test: Compound tested for growth inhibition of non-small cell lung cancer cell line NCI-H460; format: functional; settings: Homo sapiens
OVCAR-5 = test: Compound tested for growth inhibition of ovarian cancer cell line OVCAR-5; format: functional; settings: Homo sapiens
PC-3 = test: Compound tested for growth inhibition of prostate cancer cell line PC-3; format: functional; settings: Homo sapiens
RPMI-8226 = test: Compound tested for growth inhibition of leukemia cell line RPMI-8226; format: functional; settings: Homo sapiens
SF-268 = test: Compound tested for growth inhibition of CNS cancer cell line SF-268; format: functional; settings: Homo sapiens
SK-MEL-2 = test: Compound tested for growth inhibition of melanoma cell line SK-MEL-2; format: functional; settings: Homo sapiens
SF-295 = test: Compound tested for growth inhibition of CNS cancer cell line SF-295; format: functional; settings: Homo sapiens
SF-539 = test: Compound tested for growth inhibition of CNS cancer cell line SF-539; format: functional; settings: Homo sapiens
SN12C = test: Compound tested for growth inhibition of renal cancer cell line SN12C; format: functional; settings: Homo sapiens
SNB-19 = test: Compound tested for growth inhibition of CNS cancer cell line SNB-19; format: functional; settings: Homo sapiens
SK-MEL-5 = test: Compound tested for growth inhibition of melanoma cell line SK-MEL-5; format: functional; settings: Homo sapiens
SK-OV-3 = test: Compound tested for growth inhibition of ovarian cancer cell line SK-OV-3; format: functional; settings: Homo sapiens
SK-MEL-28 = test: Compound tested for growth inhibition of melanoma cell line SK-MEL-28; format: functional; settings: Homo sapiens
T47D = test: Compound tested for growth inhibition of breast cancer cell line T-47-D; format: functional; settings: Homo sapiens
TK-10 = test: Compound tested for growth inhibition of renal cancer cell line TK-10; format: functional; settings: Homo sapiens
UO-31 = test: Compound tested for growth inhibition of renal cancer cell line UO-31; format: functional; settings: Homo sapiens
UACC-257 = test: Compound tested for growth inhibition of melanoma cell line UACC-257; format: functional; settings: Homo sapiens
U-251 = test: Compound tested for growth inhibition of CNS cancer cell line U251; format: functional; settings: Homo sapiens
UACC-62 = test: Compound tested for growth inhibition of melanoma cell line UACC-62; format: functional; settings: Homo sapiens
ACHN = test: Compound tested for growth inhibition of renal cancer cell line ACHN; format: functional; settings: Homo sapiens
OVCAR-4 = test: Compound tested for growth inhibition of ovarian cancer cell line OVCAR-4; format: functional; settings: Homo sapiens
NCI-H23 = test: Compound tested for growth inhibition of non-small cell lung cancer cell line NCI-H23; format: functional; settings: Homo sapiens
NCI/ADR-RES = test: Compound tested for growth inhibition of breast cancer cell line NCI/ADR-RES; format: functional; settings: Homo sapiens
RXF 393 = test: Compound tested for growth inhibition of renal cancer cell line RFX 393; format: functional; settings: Homo sapiens
SNB-75 = test: Compound tested for growth inhibition of CNS cancer cell line SNB-75; format: functional; settings: Homo sapiens
CAKI-1 = test: Compound tested for growth inhibition of renal cancer cell line CAKI-1; format: functional; settings: Homo sapiens
MDA-MB-435 = test: Compound tested for growth inhibition of breast cancer cell line MDA-MB-435; format: functional; settings: Homo sapiens
SW-620 = test: Compound tested for growth inhibition of colon cancer cell line SW-620; format: functional; settings: Homo sapiens

GI50 (MCF7 [1]): 580 nM
GI50 (MDA-MB-468 [2]): 340 nM
Compound: N#Cc1cc(-c2nc3ccccc3s2)ccc1N

IC50 (MCF7 [3]): < 1 nM
IC50 (MDA-MB-468 [4]): < 1 nM
Compound: Nc1ccc(-c2nc3ccccc3s2)cc1

GI50 (MCF7 [1]): 820 nM
GI50 (MDA-MB-468 [2]): 320 nM
Compound: N#Cc1cc(-c2nc3ccc(F)cc3s2)ccc1N

GI50 (MCF7 [1]): 680 nM
GI50 (MDA-MB-468 [2]): 400 nM
Compound: C[Si](C)(C)C#Cc1cc(-c2nc3ccc(F)cc3s2)ccc1N

GI50 (786-0): 31600 nM
GI50 (A549): 214 nM
GI50 (BT-549): 3800 nM
GI50 (DU-145): 51300 nM
GI50 (HCT-15): 389 nM
GI50 (HT-29): 1620 nM
GI50 (HCT-116): 15800 nM
GI50 (HCC 2998): < 10 nM
GI50 (K562): > 100000 nM
GI50 (MCF7 [1]): 5.7 nM
GI50 (MCF7 [5]): < 10 nM
GI50 (MDA-MB-231): 7410 nM
GI50 (MDA-MB-468 [2]): 7.8 nM
GI50 (MOLT-4): > 100000 nM
GI50 (NCI-H522): 28200 nM
GI50 (NCI-H322M): 11.5 nM
GI50 (OVCAR-3): 28200 nM
GI50 (NCI-H226): 14500 nM
GI50 (OVCAR-8): > 100000 nM
GI50 (NCI-H460): < 10 nM
GI50 (OVCAR-5): 37.1 nM
GI50 (PC-3): 24000 nM
GI50 (RPMI-8226): > 100000 nM
GI50 (SK-MEL-2): 13500 nM
GI50 (SK-MEL-5): 537 nM
GI50 (SK-OV-3): 20900 nM
GI50 (SK-MEL-28): > 100000 nM
GI50 (T47D): 14.4 nM
GI50 (U-251): 8710 nM
GI50 (ACHN): 759 nM
GI50 (OVCAR-4): 1380 nM
GI50 (NCI-H23): < 10 nM
GI50 (MDA-MB-435): > 100000 nM
GI50 (SW-620): > 100000 nM
Compound: N#Cc1cc(-c2nc3cc(F)ccc3s2)ccc1N
GI50 (A498): 8510 nM
GI50 (HOP-62): 17000 nM
GI50 (HOP-92): 2630 nM
GI50 (Hs-578T): 8510 nM
GI50 (IGROV-1): < 10 nM
GI50 (KM12): 97.7 nM
GI50 (M14): 25700 nM
GI50 (LOX IMVI): > 100000 nM
GI50 (MDA-N): > 100000 nM
GI50 (Malme-3M): > 100000 nM
GI50 (SF-268): 12000 nM
GI50 (SF-295): 16600 nM
GI50 (SF-539): 8710 nM
GI50 (SN12C): > 100000 nM
GI50 (SNB-19): 9120 nM
GI50 (TK-10): 30.2 nM
GI50 (UO-31): 49000 nM
GI50 (UACC-257): > 100000 nM
GI50 (UACC-62): 6610 nM
GI50 (NCI/ADR-RES): > 100000 nM
GI50 (RXF 393): 2400 nM
GI50 (SNB-75): 832 nM
GI50 (CAKI-1): > 100000 nM

GI50 (MCF7 [1]): 180 nM
GI50 (MDA-MB-468 [2]): 80 nM
Compound: N#Cc1cc(-c2nc3c(F)cccc3s2)ccc1N

GI50 (MCF7 [1]): 710 nM
GI50 (MDA-MB-468 [2]): 560 nM
Compound: C[Si](C)(C)C#Cc1cc(-c2nc3ccccc3s2)ccc1N

GI50 (MCF7 [1]): 160 nM
GI50 (MDA-MB-468 [2]): 210 nM
Compound: C[Si](C)(C)C#Cc1cc(-c2nc3cc(F)ccc3s2)ccc1N

GI50 (MCF7 [1]): 11 nM
GI50 (MDA-MB-468 [2]): 6.8 nM
Compound: C#Cc1cc(-c2nc3cc(F)ccc3s2)ccc1N

GI50 (MCF7 [1]): 520 nM
GI50 (MDA-MB-468 [2]): 230 nM
Compound: C[Si](C)(C)C#Cc1cc(-c2nc3c(F)cccc3s2)ccc1N

GI50 (MCF7 [1]): 49 nM
GI50 (MDA-MB-468 [2]): 15 nM
Compound: C#Cc1cc(-c2nc3ccccc3s2)ccc1N

GI50 (MCF7 [1]): 110 nM
GI50 (MDA-MB-468 [2]): 30 nM
Compound: C#Cc1cc(-c2nc3c(F)cccc3s2)ccc1N

GI50 (MCF7 [1]): 110 nM
GI50 (MDA-MB-468 [2]): 23 nM
Compound: C#Cc1cc(-c2nc3ccc(F)cc3s2)ccc1N
